# Measurements published in a melting point compilation (Tetko et al.; mined from patent text by program, amines drawn as free bases though some values may be those of a salt).
row,SMILES,melting point
1,COc1ccc(C(Sc2ccccc2N)C(O)C(=O)O)cc1 (stereo unspecified),167 to 168 °C
2,COC(=O)NNC(=O)c1n[nH]c2cc(OC)c(OC)cc12,235 °C
3,CCCCCN1N=C(c2ccc(OCC)c(OCC)c2)[C@@H]2CCCC[C@@H]2C1=O (relative stereo),98 to 99 °C
4,Cc1cc(Cl)cnc1NCCCNc1ncc(Cc2ccncc2)c(=O)[nH]1,90 to 92 °C
5,COCC1(C)CCCOc2cc(/C=C/c3ccc(C(=O)O)cc3)ccc21 (stereo unspecified),194 to 196 °C
6,CCOC(=O)c1cn(Cc2ccccc2OC)c2sc(-c3ccc(OC)cc3)c(CBr)c2c1=O,200 to 201 °C
7,O=c1[nH]cnc(N=Nc2ccccc2)c1O,244 to 245 °C
8,O=C1CCCn2c(=O)[nH]c3cccc1c32,235 °C
9,COc1cc(C(=O)c2c(-c3ccc(OCCN4CCCC4)c(COCc4ccccc4)c3)sc3cc(O)ccc23)ccc1CN1CCOCC1,87 to 90 °C
10,Cc1nc(-c2ncn3c2COC(=O)c2c(Cl)cccc2-3)no1,253 to 255 °C
11,CC(=O)N(O)Cc1cccc(C#Cc2ccccc2)c1,91 to 93 °C
12,CCC1(CC)CN(C(C)(C)C)C(=O)C(CC)(CC)N1OC(C)(C)C#N,45 to 52 °C
13,Cc1cc(-n2ccc(CCc3ccccc3)cc2=O)sc1C(=O)NCc1ccccc1,145 to 146 °C
14,Cc1c(Cl)nc2nc(SCc3ccccc3)nn2c1Cl,121 to 123 °C
15,CSc1ccc(C(O)(c2ccc(Cl)cc2)C2CCN(CCO)C2=O)cc1 (stereo unspecified),141 °C
16,Oc1ccc(-c2nc3cc(O)cc(-c4ccco4)c3o2)cc1,120 to 121 °C
17,CCOC(=O)c1c(OC)nc2c(C)cc(C)cc2c1-c1ccccc1Cl,135 to 136 °C
18,CCCCCCC(C)(C)c1cc(OCc2ccccc2)c(C2=C(CC#N)CCC(C)C2)c(OCc2ccccc2)c1 (stereo unspecified),85 to 86 °C
19,CC(=O)N[C@@H](C)COc1cc2oc(-c3ccc(OC[C@H]4CC4(F)F)cc3)nc2cn1,205 °C
20,C=CCOC(=O)C1CC(=O)N(C2CC(C)(C)N(C)C(C)(C)C2)C1 (stereo unspecified),48 to 49 °C
21,O=C(NC(=O)c1ccccc1Cl)Nc1cc(C(F)(F)F)c(Cl)cc1Br,185 °C
22,O=C(Nc1n[nH]c(=S)s1)NC(Cc1ccccc1)C(=O)NCc1ccc(C(F)(F)F)cc1 (stereo unspecified),217 to 218 °C

row,SMILES,melting point
1,O=C(Cc1cccnc1)c1ccc(Cl)cc1Cl,55 to 56 °C
2,CON(C)C(=O)Nc1ccc(OCCc2ccc(C(C)C)cc2)cc1,81 to 82 °C
3,CC(C)(C)c1cc(-n2nc3ccc(Sc4ccccc4)cc3n2)c(O)c(C(C)(C)C)c1,132 to 134 °C
4,O=S(=O)(NCc1ccc(O)cc1)c1ccc(Cl)cc1,187 to 189 °C
5,COc1ccc(C2(C#N)CCC(CC(=O)O)CC2)c2c1OCCO2 (stereo unspecified),149 to 150 °C
6,O=C(Nc1ccccc1N1CCOCC1)c1cccc2c1C(=O)c1ccccc1-2,154 to 156 °C
7,O=C(O)C1Cc2c(ccc3c(=O)c4c(F)cccc4oc23)O1 (stereo unspecified),262 to 265 °C
8,Nc1c(Cl)cc(Nc2ncnc3cnc(N[C@H]4CC[C@H](C(=O)N5CCOCC5)CC4)nc23)cc1Cl,204 to 207 °C
9,CC(=O)Nc1ccc(-c2nc(C(=O)Nc3nccs3)c(-c3ccccc3C)[nH]2)cc1,269 to 271 °C
10,CN(C)CCN(C(N)=O)c1cnccn1,105 to 108 °C
11,CCOC(=O)C(C)(O)c1ccncc1F (stereo unspecified),56 to 60 °C
12,CC1CC(=O)NN=C1c1ccc(-n2ccc(CO)c2)cc1 (stereo unspecified),184 to 186 °C
13,O=C(CCCN1CCN(c2ncc3ccccc3n2)CC1)c1ccc(F)cc1,129 to 131 °C
14,O=C(NCCOc1ccc(CC(Oc2ccccc2)C(=O)O)cc1)c1ccc(-c2ccc(F)cc2)cc1 (stereo unspecified),195 to 196 °C
15,CC(=NO)c1cc2c(s1)CCCN(CCCCN1CCN(c3ncccn3)CC1)C2=O,144 to 146 °C
16,NC(=O)c1sc2cncc(Oc3ccc(Cl)cc3)c2c1N,202 to 204 °C
17,CCOC(=O)CNC(=O)CS(=O)(=O)Nc1ccc(F)c(C(F)(F)F)c1,145 to 147 °C
18,CC(C)(C)OC(=O)CCN(CCC12CC3CC(CC(C3)C1)C2)C(=O)NCCCc1ccncc1,124 to 127 °C
19,COc1ccc(-c2cccc(C3=CCC(OC(Cc4ccccc4)C(=O)O)(c4c(Cc5ccccc5)oc5ccccc45)C=C3)c2)cc1 (stereo unspecified),73 to 75 °C
20,O=c1[nH]c2cc(F)c(F)cc2n2ccnc12,> 300 °C
21,CCOC(=O)c1ccc(NN2CN(Nc3ccc(C(=O)OCC)cc3)CN(Nc3ccc(C(=O)OCC)cc3)C2)cc1,218 to 223 °C
22,O=C(OCc1ccncc1)c1cc2c(=O)n(Cc3ccccc3)c(=O)[nH]c2s1,248 to 250 °C

row,SMILES,melting point
1,CC(C)(C)SC1CC(=O)N1CC(=O)OCc1ccc([N+](=O)[O-])cc1 (stereo unspecified),82.5 to 84 °C
2,CCCCC(=O)Nc1cccc2c1C(=O)N(C1CCC(=O)NC1=O)C2=O (stereo unspecified),178 to 179 °C
3,COc1ccc(C(=O)Oc2ccc(COc3ccc4c(c3)CCC(CN(C)C)C4)cc2)cc1 (stereo unspecified),119 to 121 °C
4,CN1C(=O)Cn2c(CCl)nnc2-c2cc(Cl)ccc21,193 to 194 °C
5,Cc1nc(Cl)c([N+](=O)[O-])c(N(c2ccccc2)c2ccccc2)n1,128 to 130 °C
6,CC(C)Nc1c(-c2cc(F)cc(F)c2F)c(Cl)nc2ncnn12,151 °C
7,CCOC(=O)c1cn(C)c2nc3c(F)c(N4CCNC(c5ccc(OC)cc5)C4)c(F)cc3cc2c1=O (racemic),209 °C
8,CN(C)C(=O)c1ccccc1CC(=O)Nc1cccc(/C=C/c2nc(C3CCC3)cs2)c1,125 to 127 °C
9,Cc1c2c3c(ccc2nn1C)CCC3=O,157 to 159 °C
10,CC(C)(S)C(N)P(C)(=O)O (stereo unspecified),221 °C
11,CC1CNc2nc3c(N)nc4ccccc4c3n21 (stereo unspecified),265 to 273 °C
12,COc1cc2ncc(C#N)c(Nc3cccc(SC)c3)c2cc1OC,> 250 °C
13,O=c1c2ccc(O)cc2oc2c1oc1c3ccccc3ccc21,> 300 °C
14,CNC(=O)[C@@H]1C[C@H](SCc2ccc(OC)cc2)CN1,53 to 54 °C
15,CC(C)(C)c1cc(CC(C)(C)C2OCCS2)cc(C(C)(C)C)c1O (stereo unspecified),77 °C
16,CC(=O)NCCn1ccc2c1-c1c(Cl)cccc1CC2,146 to 147 °C
17,Cc1ccc(C)c(-c2c(C)ccc(C)c2O)c1O,110 to 113 °C
18,COC(=O)c1cnc(C(=O)O)nc1,152 to 154 °C
19,COc1cc2c(Nc3ccc(Sc4nccn4C)c(Cl)c3)c(C#N)cnc2cc1/C=C/CCO,273 to 278 °C
20,Cc1ccccc1Nc1c(C(=O)C(C)C)cnc2c(OCCO)cccc12,138 to 140 °C
21,Cc1cc(=O)n2cccc(SC(=O)N(C)C)c2n1,165 to 167 °C

# Further lines, results first:
row,melting point,SMILES
1,97 to 103 °C,CC(C)(C)N1CC(c2cc(Cl)c(N)c(Cl)c2)OC1=O (stereo unspecified)
2,250 to 253 °C,N#Cc1cc(C2=Nc3ccc(-c4ccc(F)cc4F)cc3NC(=O)C2)ccn1
3,147 to 150 °C,CCOC(=O)c1cnc2cc(OC)c(OC)cc2c1Cl
4,158 to 164 °C,OC1(c2ccc(Cl)cc2)CCCNC12CCCCC2 (stereo unspecified)
5,258 °C,c1ccc(Nc2ncnc3ncccc23)cc1
6,143 to 144 °C,COC(=O)c1csc(NC(=O)[C@H](CC2CCCC2)c2ccc(Cl)c(Cl)c2)n1
7,180 to 181 °C,COc1ccc2c(c1)c(-c1ccccc1)nc(=S)n2CC1CC1
8,85 to 88 °C,BrCc1ccccc1-c1ccccc1CBr
9,99.2 to 101 °C,COc1cc(OC)cc(-c2ncn(C)c2-c2ccc(OC(F)F)c(N)c2)c1
10,284 to 286 °C,COc1ccc(C(=O)Nc2c(Cl)cncc2Cl)c2c1OCC2CC(=O)NCc1ccccc1 (stereo unspecified)
11,100 to 110 °C,COCCc1cccc2oc(C(=O)Nc3ccc(-c4ccc(S(=O)(=O)NC(C(=O)O)C(C)C)cc4)cc3)c(C)c12 (stereo unspecified)
12,199 to 201 °C,Cc1cccc(N2CCN(CCCCc3ccc(C(=O)CCC(=O)O)cc3)CC2)c1
13,156 °C,CC(C)c1ccc(N(Cc2ccc(O)cc2)C(=O)C2CCCc3ccccc32)cc1 (stereo unspecified)
14,93 to 95 °C,Cc1cn(C2CC(O[Si](C)(C)C(C)(C)C)C(CO)O2)c(=O)[nH]c1=O (stereo unspecified)
15,93 to 94 °C,CCCC(=O)c1cn(C)cc(-c2cccc(C(F)(F)F)c2)c1=O
16,95 to 97 °C,CS(=O)(=O)c1ccc(C(CC2CCCC2)c2nc(Cl)c(C(=O)C3CC3)[nH]2)cc1 (stereo unspecified)
17,123 to 124 °C,CCS(=O)(=O)N(C(C)=O)c1cc(-c2ncnc(C(F)F)c2Cl)c(F)cc1C#N
18,167 to 168 °C,O=C(O)CN(C(=O)CCCCl)c1csc2ccccc12

row,melting point,SMILES
1,198 °C,COCCc1nc2c(N)nc3ccccc3c2n1CCCNC(=O)c1cc2ccccc2cn1
2,253 to 255 °C,Cc1cccc(-c2nc(NC3CCCCC3)c3ccccc3n2)n1
3,55 to 57 °C,COc1ccc2c(c1)CC(Nc1ccc(OCc3ccccc3)cc1)C2 (stereo unspecified)
4,58 to 60 °C,C=C(F)CCc1cccc(C2(c3ccc(OC(F)F)cc3)N=C(N)N(C)C2=O)c1 (stereo unspecified)
5,174 to 178 °C,Cc1nc(N(C)C)sc1C(=O)c1ccc(N)c(N)c1
6,51 to 52 °C,Cc1cccc2c(=O)cc(C3CCCC3)oc12
7,82 to 84 °C,COC(=O)[C@H]1[C@@H](N=[N+]=[N-])C(=O)N1Cc1ccc(OC)cc1OC (relative stereo)
8,186 to 188 °C,Cc1c(NCCN)nc(=O)n(C)c1N
9,101 to 102 °C,CCOC(=O)CCCCCOC1OC(COC(C)=O)C(OC(C)=O)C(OC(C)=O)C1NC(C)=O (stereo unspecified)
10,148 to 150 °C,CN1C(=O)CC[C@]2(C)c3ccc(-c4ccc(Oc5ccccc5)cc4)cc3CC[C@@H]12
11,138 to 139 °C,CC(C)NCC(O)COc1ccc(NC(=O)N(C)C)cc1 (stereo unspecified)
12,366 to 368 °C,Oc1ccnc2ccc3nc[nH]c3c12
13,161 to 163 °C,C1=C(COc2ccccc2)CCN(Cc2c[nH]c3ncccc23)C1
14,142 to 146 °C,O=C(CC1(c2ccccc2)CCC1)C(=O)Nc1ccc2c(c1)COC2=O
15,166 to 168 °C,O=C(O)Cc1ccc2c(c1)-c1ccccc1C2
16,58 °C,CC1(C(=O)Cn2cncn2)CC1
17,241 to 245 °C,CC(C)(C)CN1C(=O)[C@H](CC(=O)O)O[C@@H](c2ccccc2Cl)c2cc(Cl)ccc21
18,55 to 58 °C,N#Cc1cc(Cl)ncc1Cl
